Drawing on ChEMBL document CHEMBL4000235, “Discovering novel 7-azaindole-based series as potent AXL kinase inhibitors” (Bioorg Med Chem Lett, 2017), this text covers IC50 and inhibition for three compounds.

Some results are limits rather than exact numbers.

In assay [1] the target is T1, Tyrosine-protein kinase receptor UFO (Homo sapiens, UniProt P30530).
T1 sequence (P30530 whole entry): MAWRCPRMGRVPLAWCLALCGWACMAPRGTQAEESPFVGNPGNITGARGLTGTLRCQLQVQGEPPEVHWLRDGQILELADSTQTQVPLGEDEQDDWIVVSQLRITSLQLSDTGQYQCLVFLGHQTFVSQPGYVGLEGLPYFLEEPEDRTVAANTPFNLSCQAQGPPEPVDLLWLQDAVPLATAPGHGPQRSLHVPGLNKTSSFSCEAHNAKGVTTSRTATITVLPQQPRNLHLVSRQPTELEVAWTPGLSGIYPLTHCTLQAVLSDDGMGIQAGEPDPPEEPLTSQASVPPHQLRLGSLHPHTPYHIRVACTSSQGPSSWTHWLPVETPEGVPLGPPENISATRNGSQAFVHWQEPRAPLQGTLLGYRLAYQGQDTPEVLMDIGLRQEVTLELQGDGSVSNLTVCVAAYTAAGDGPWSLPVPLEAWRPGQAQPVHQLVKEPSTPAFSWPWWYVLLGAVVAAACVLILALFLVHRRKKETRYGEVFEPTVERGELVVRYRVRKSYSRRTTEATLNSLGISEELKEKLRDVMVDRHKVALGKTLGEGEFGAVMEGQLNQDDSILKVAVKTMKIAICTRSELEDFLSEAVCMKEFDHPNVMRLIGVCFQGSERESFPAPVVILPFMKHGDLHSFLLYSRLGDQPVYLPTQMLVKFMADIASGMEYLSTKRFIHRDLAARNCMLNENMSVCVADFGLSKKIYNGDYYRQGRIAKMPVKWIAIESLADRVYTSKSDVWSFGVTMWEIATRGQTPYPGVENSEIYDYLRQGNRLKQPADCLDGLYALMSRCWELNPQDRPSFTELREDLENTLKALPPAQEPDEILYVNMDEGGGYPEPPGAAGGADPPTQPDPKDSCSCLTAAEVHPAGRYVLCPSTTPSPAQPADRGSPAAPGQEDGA
Nature of the assay: Inhibition of recombinant human His-tagged AXL expressed in insect cells after 60 mins by Z'-LYTE assay.

Assay [2] concerns the target Tyrosine-protein kinase receptor UFO (Homo sapiens) (UniProt P30530). The settings on record: 1 uM.
Description: Inhibition of recombinant human His-tagged AXL expressed in insect cells at 1 uM after 60 mins by Z'-LYTE assay relative to control

One may read the IC50 as the concentration needed to halve the response being measured. For the compound `O=C(O)c1cc(-c2c[nH]c3ncc(-c4ccccc4)cc23)ccc1F`, the IC50 in assay [1] was over 1000 nM.

In the case of `O=C(O)c1ccc(-c2c[nH]c3ncc(-c4ccccc4)cc23)cc1`, the IC50 in assay [1] is 182 nM.

As a reminder, the inhibition is the relative decrease from the control value, in per cent. Low readings indicate little suppression, high ones strong suppression. Regarding `c1ccc(-c2cnc3[nH]cc(-c4ccc(-c5nnn[nH]5)cc4)c3c2)cc1`, the IC50 in assay [1] turned out to be 524 nM. The compound further yielded an inhibition in assay [2] of 75%.
